Source: ChEMBL document CHEMBL3885861, “Open TG-GATES”

Organism: Rattus norvegicus
Test: Open TG-GATES - Regimen: Single
Format: toxicity, organism-based, Sprague-Dawley
Parameters: regimen Single, gender Male, age 6 weeks
Details: in vivo, po, 6 mg/kg, route gavage, dose level Low; for APTT / Bas / Eos / Fbg / Hb / Ht / Lym / MCH / MCHC / MCV / Mono / Neu / PT / Plat / RBC / Ret / WBC: tissue Blood; for KIDNEY_L / KIDNEY_R / KIDNEY_TOTAL: tissue Kidney; for LIVER: tissue Liver; for A/G / ALP / ALT / AST / BUN / CRE / Ca / Cl / DBIL / GLC / IP / K / LDH / Na / PL / RALB / TBIL / TC / TG / TP / gamma-GTP: tissue Plasma

## CC(C)NNC(=O)c1ccncc1 [IPRONIAZID]
3 h
  TERMINAL_BW: 204.8 g
  APTT: 22.1 s
  Bas: 0%
  Eos: 1%
  Fbg: 317 mg/dL
  Hb: 13.4 g/dL
  Ht: 38.8%
  Lym: 77%
  MCH: 21.1 pg
  MCHC: 34.5%
  MCV: 61.2 fL
  Mono: 1.8%
  Neu: 20%
  PT: 16.3 s
  Plat: 129.7 x10_4/uL
  RBC: 634.8 x10_4/ul
  Ret: 7.5%
  WBC: 72.5 x10_2/uL
  KIDNEY_L: 1 g
  KIDNEY_R: 1 g
  KIDNEY_TOTAL: 2 g
  LIVER: 9.7 g
  A/G: 1.2
  ALP: 1455.8 IU/L
  ALT: 40.8 IU/L
  AST: 83.8 IU/L
  BUN: 13.4 mg/dL
  CRE: 0.1 mg/dL
  Ca: 10.6 mg/dL
  Cl: 106.8 meq/L
  DBIL: 0.002 mg/dL
  GLC: 187.2 mg/dL
  IP: 9 mg/dL
  K: 4.1 meq/L
  LDH: 208.2 IU/L
  Na: 142 meq/L
  PL: 132.4 mg/dL
  RALB: 3.1 g/dL
  TBIL: 0.016 mg/dL
  TC: 67 mg/dL
  TG: 73.2 mg/dL
  TP: 5.6 g/dL
  gamma-GTP: 1.4 IU/L
6 h
  TERMINAL_BW: 201.3 g
  APTT: 22.8 s
  Bas: 0%
  Eos: 0.6%
  Fbg: 317 mg/dL
  Hb: 13.1 g/dL
  Ht: 38.4%
  Lym: 78.8%
  MCH: 20.9 pg
  MCHC: 34.1%
  MCV: 61.2 fL
  Mono: 2.2%
  Neu: 17.8%
  PT: 15.6 s
  Plat: 118.4 x10_4/uL
  RBC: 627.2 x10_4/ul
  Ret: 7.4%
  WBC: 69.8 x10_2/uL
  KIDNEY_L: 0.9 g
  KIDNEY_R: 0.9 g
  KIDNEY_TOTAL: 1.9 g
  LIVER: 8.9 g
  A/G: 1.2
  ALP: 1305.2 IU/L
  ALT: 36.8 IU/L
  AST: 73.2 IU/L
  BUN: 9.6 mg/dL
  CRE: 0.2 mg/dL
  Ca: 10.6 mg/dL
  Cl: 106.8 meq/L
  DBIL: 0.002 mg/dL
  GLC: 182.4 mg/dL
  IP: 9.2 mg/dL
  K: 4.3 meq/L
  LDH: 225.2 IU/L
  Na: 141.6 meq/L
  PL: 135.2 mg/dL
  RALB: 3.1 g/dL
  TBIL: 0.014 mg/dL
  TC: 74.2 mg/dL
  TG: 62.2 mg/dL
  TP: 5.5 g/dL
  gamma-GTP: 1 IU/L
9 h
  TERMINAL_BW: 205.8 g
  APTT: 22 s
  Bas: 0%
  Eos: 1%
  Fbg: 323.2 mg/dL
  Hb: 13.2 g/dL
  Ht: 38.7%
  Lym: 77.8%
  MCH: 20.8 pg
  MCHC: 34.1%
  MCV: 60.9 fL
  Mono: 2%
  Neu: 18.6%
  PT: 15.8 s
  Plat: 120.2 x10_4/uL
  RBC: 635.6 x10_4/ul
  Ret: 7.8%
  WBC: 99.2 x10_2/uL
  KIDNEY_L: 0.9 g
  KIDNEY_R: 1 g
  KIDNEY_TOTAL: 1.9 g
  LIVER: 8.7 g
  A/G: 1.2
  ALP: 1353 IU/L
  ALT: 37.2 IU/L
  AST: 72 IU/L
  BUN: 12.8 mg/dL
  CRE: 0.2 mg/dL
  Ca: 10.4 mg/dL
  Cl: 106.8 meq/L
  DBIL: 0.004 mg/dL
  GLC: 178.8 mg/dL
  IP: 10 mg/dL
  K: 4.2 meq/L
  LDH: 172.6 IU/L
  Na: 141.4 meq/L
  PL: 130.6 mg/dL
  RALB: 3 g/dL
  TBIL: 0.014 mg/dL
  TC: 74 mg/dL
  TG: 72.2 mg/dL
  TP: 5.5 g/dL
  gamma-GTP: 1.4 IU/L
24 h
  TERMINAL_BW: 218.2 g
  APTT: 21.7 s
  Bas: 0%
  Eos: 1%
  Fbg: 323.4 mg/dL
  Hb: 13.2 g/dL
  Ht: 38.3%
  Lym: 83.8%
  MCH: 21.2 pg
  MCHC: 34.5%
  MCV: 61.3 fL
  Mono: 2.6%
  Neu: 12.2%
  PT: 16.6 s
  Plat: 119.6 x10_4/uL
  RBC: 624 x10_4/ul
  Ret: 7.1%
  WBC: 95 x10_2/uL
  KIDNEY_L: 1 g
  KIDNEY_R: 1 g
  KIDNEY_TOTAL: 1.9 g
  LIVER: 10.2 g
  A/G: 1.2
  ALP: 1506.4 IU/L
  ALT: 43.2 IU/L
  AST: 74.6 IU/L
  BUN: 15.2 mg/dL
  CRE: 0.2 mg/dL
  Ca: 10.7 mg/dL
  Cl: 106.4 meq/L
  DBIL: 0.004 mg/dL
  GLC: 179.8 mg/dL
  IP: 7.4 mg/dL
  K: 4.6 meq/L
  LDH: 255 IU/L
  Na: 141.6 meq/L
  PL: 148.8 mg/dL
  RALB: 3 g/dL
  TBIL: 0.008 mg/dL
  TC: 83.2 mg/dL
  TG: 98.8 mg/dL
  TP: 5.5 g/dL
  gamma-GTP: 1.6 IU/L
